Measured values published in US11464770B2, “Anticancer pharmaceutical composition” (NATIONAL CANCER CENTER, priority 2016, dated 2022).
Read-outs that look alike come from different tables or passages of the source.

Assays:
[1] = test system: breast cancer cell lines (e.g. MDA-MB-231, SK-BR-3, MDA-MB-468, HCC1954); test: Cell based assay, cell viability (CellTiter-Glo), breast cancer cell lines
Method in brief: (§1)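 Plated cells (24 h) → compound to 0–2 μM final → 72 h → CellTiter-Glo ATP luminescence.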

[2] = test system: neuroblastoma cell lines; test: Cell based assay, cell viability (CellTiter-Glo), neuroblastoma cell lines; settings: Homo sapiens; SH-SY5Y cell line
Method in brief: as §1

[3] = test system: ovarian cancer cell lines; test: Cell based assay, cell viability (CellTiter-Glo), ovarian cancer cell lines; settings: Homo sapiens; OVCAR-3 cells
Method in brief: as §1

[4] = Homo sapiens, BT-20 cells, 72 hours treatment, CellTiter-Glo cell viability, read-out: IC50, Breast cancer cell line BT-20
[5] = Homo sapiens, HCC1395 cells, 72 hours treatment, CellTiter-Glo cell viability, read-out: IC50, Breast cancer cell line HCC1395
[6] = Homo sapiens, HCC1954 cells, 72 hours treatment, CellTiter-Glo cell viability, read-out: IC50, Breast cancer cell line HCC1954
[7] = Homo sapiens, JIMT-1 cells, 72 hours treatment, CellTiter-Glo cell viability, read-out: IC50, Breast cancer cell line JIMT-1
[8] = Homo sapiens, MCF7 cells, 72 hours treatment, CellTiter-Glo cell viability, read-out: IC50, Breast cancer cell line MCF7
[9] = Homo sapiens, MDA-MB-231 cells, 72 hours treatment, CellTiter-Glo cell viability, read-out: IC50, Breast cancer cell line MDA-MB-231
[10] = Homo sapiens, MDA-MB-468 cells, 72 hours treatment, CellTiter-Glo cell viability, read-out: IC50, Breast cancer cell line MDA-MB-468
[11] = Homo sapiens, SK-BR-3 cells, 72 hours treatment, CellTiter-Glo cell viability, read-out: IC50, Breast cancer cell line SK-BR-3
[12] = MDA-MB-231-L/DOX cells, 72 hours treatment, CellTiter-Glo cell viability, read-out: IC50, Breast cancer cell line MDA-MB-231-L/DOX
[13] = Breast cancer cell line MDA-MB-231-L/DOX, 72 hours, CellTiter-Glo, read-out: IC50, MDA-MB-231-L/DOX
[14] = Homo sapiens, Breast cancer cell line BT-20, 72 hours, CellTiter-Glo, read-out: IC50, BT-20
[15] = Homo sapiens, Breast cancer cell line HCC1395, 72 hours, CellTiter-Glo, read-out: IC50, HCC1395
[16] = Homo sapiens, Breast cancer cell line HCC1954, 72 hours, CellTiter-Glo, read-out: IC50, HCC1954
[17] = Homo sapiens, Breast cancer cell line JIMT-1, 72 hours, CellTiter-Glo, read-out: IC50, JIMT-1
[18] = Homo sapiens, Breast cancer cell line MCF7, 72 hours, CellTiter-Glo, read-out: IC50, MCF7
[19] = Homo sapiens, Breast cancer cell line MDA-MB-231, 72 hours, CellTiter-Glo, read-out: IC50, MDA-MB-231
[20] = Homo sapiens, Breast cancer cell line MDA-MB-468, 72 hours, CellTiter-Glo, read-out: IC50, MDA-MB-468
[21] = Homo sapiens, Breast cancer cell line SK-BR-3, 72 hours, CellTiter-Glo, read-out: IC50, SK-BR-3

| Structure (SMILES) | IC50 [1, 4] | IC50 [1, 5] | IC50 [1, 6] | IC50 [1, 7] | IC50 [1, 8] | IC50 [1, 9] | IC50 [1, 10] | IC50 [1, 11] | IC50 [1, 12] | IC50 [2] | IC50 [3] | IC50 [1, 13] | IC50 [1, 14] | IC50 [1, 15] | IC50 [1, 16] | IC50 [1, 17] | IC50 [1, 18] | IC50 [1, 19] | IC50 [1, 20] | IC50 [1, 21] |
| --- | --- | --- | --- | --- | --- | --- | --- | --- | --- | --- | --- | --- | --- | --- | --- | --- | --- | --- | --- | --- |
| CC(=O)c1c([S+]([O-])Cc2ccc(I)cc2)[nH]c2c(Cl)ccc(Cl)c2c1=O (centres unmarked) [Compound 83, 3-acetyl-5,8-dichloro-2-((4-iodobenzyl)sulfinyl)quinolin-4(1H)-one] | > 2 µM | > 10 µM | 1.45 µM | > 10 µM | > 2 µM | 1.95 µM | 1.76 µM | 1.21 µM | > 2 µM | 1.24 µM | 0.82 µM |  |  |  |  |  |  |  |  |  |
| CC(=O)c1c([S+]([O-])Cc2cccnc2)[nH]c2c(Br)ccc(Cl)c2c1=O (centres unmarked) [Compound 84, 3-acetyl-8-bromo-5-chloro-2-((pyridin-3-ylmethyl)sulfinyl)quinolin-4(1H)-one] | > 2 µM | > 10 µM | 1.12 µM | > 10 µM | > 2 µM | 1.6 µM | 1.04 µM | 0.76 µM | > 2 µM | 0.6 µM | 0.59 µM |  |  |  |  |  |  |  |  |  |
| Cc1cc(C[S+]([O-])c2[nH]c3c(Br)ccc(Cl)c3c(=O)c2C(=O)C(C)C)no1 (centres unmarked) [Compound 95, 8-bromo-5-chloro-3-isobutyryl-2-(((5-methylisoxazol-3-yl)methyl)sulfinyl)quinolin-4(1H)-one] | 1.87 µM | > 10 µM | 0.48 µM | > 2 µM | 1.29 µM | 1.41 µM | 0.47 µM | 0.47 µM | 1.03 µM | 0.48 µM | 0.38 µM |  |  |  |  |  |  |  |  |  |
| CC(=O)c1c(S(=O)(=O)Cc2ccccc2)[nH]c2c(Br)ccc(Cl)c2c1=O [Compound 34, 3-acetyl-2-(benzylsulfonyl)-8-bromo-5-chloroquinolin-4(1H)-one] |  |  |  |  |  |  |  |  |  | > 2 µM | 0.99 µM | > 2 µM | > 2 µM | > 10 µM | > 2 µM | > 10 µM | > 2 µM | > 2 µM | > 2 µM | 1.27 µM |
| CC(=O)c1c([S+]([O-])Cc2ccc(C(F)(F)F)o2)[nH]c2c(Br)ccc(Cl)c2c1=O (centres unmarked) [Compound 72, 3-acetyl-8-bromo-5-chloro-2-(((5-(trifluoromethyl)furan-2-yl)methyl)sulfinyl)quinolin-4(1H)-one] |  |  |  |  |  |  |  |  |  | > 2 µM | 0.73 µM | > 2 µM | > 2 µM | > 2 µM | > 2 µM | > 2 µM | > 2 µM | 1.38 µM | > 2 µM | 0.85 µM |
| CC(=O)c1c([S+]([O-])Cc2cc(F)cc(F)c2)[nH]c2c(Br)ccc(Cl)c2c1=O (centres unmarked) [Compound 46, 3-acetyl-8-bromo-5-chloro-2-((3,5-difluorobenzyl)sulfinyl)quinolin-4(1H)-one] |  |  |  |  |  |  |  |  |  | > 2 µM | 1.02 µM | > 2 µM | > 2 µM | > 10 µM | > 2 µM | > 10 µM | > 2 µM | > 2 µM | > 2 µM | 1.16 µM |
| CC(=O)c1c([S+]([O-])Cc2ccc([N+](=O)[O-])cc2)[nH]c2c(Cl)ccc(Cl)c2c1=O (centres unmarked) [Compound 57, 3-acetyl-5,8-dichloro-2-((4-nitrobenzyl)sulfinyl)quinolin-4(1H)-one] |  |  |  |  |  |  |  |  |  | > 2 µM | > 2 µM | > 2 µM | > 2 µM | > 10 µM | > 2 µM | > 10 µM | > 2 µM | > 2 µM | > 2 µM | 1.34 µM |
| CC(=O)c1c([S+]([O-])Cc2ccc([N+](=O)[O-])cc2)[nH]c2c(Br)ccc(Cl)c2c1=O (centres unmarked) [Compound 33, 3-acetyl-8-bromo-5-chloro-2-((4-nitrobenzyl)sulfinyl)quinolin-4(1H)-one] |  |  |  |  |  |  |  |  |  | > 2 µM | 1.18 µM | > 2 µM | > 2 µM | > 10 µM | > 2 µM | > 10 µM | > 2 µM | > 2 µM | > 2 µM | 1 µM |
| CC(=O)c1c([S+]([O-])Cc2ccc(C(C)(C)C)cc2)[nH]c2c(Br)ccc(Cl)c2c1=O (centres unmarked) [Compound 60, 3-acetyl-8-bromo-2-((4-(tert-butyl)benzyl)sulfinyl)-5-chloroquinolin-4(1H)-one] |  |  |  |  |  |  |  |  |  | > 2 µM | > 2 µM | > 2 µM | > 2 µM | > 10 µM | > 2 µM | > 10 µM | > 2 µM | > 2 µM | > 2 µM | 1.88 µM |
| COc1cc(S(F)(F)(F)(F)F)ccc1C[S+]([O-])c1[nH]c2c(Br)ccc(Cl)c2c(=O)c1C(C)=O (centres unmarked) [Compound 75, 3-acetyl-8-bromo-5-chloro-2-((2-methoxy-4-(pentafluoro--sulfanyl)benzyl)sulfinyl)quinolin-4(1H)-one] |  |  |  |  |  |  |  |  |  | > 2 µM | 1.36 µM | > 2 µM | > 2 µM | > 2 µM | > 2 µM | > 2 µM | > 2 µM | 1.16 µM | > 2 µM | 1.7 µM |
| COC(=O)c1ccc(C[S+]([O-])c2[nH]c3c(Cl)ccc(Cl)c3c(=O)c2C(C)=O)o1 (centres unmarked) [Compound 89, methyl 5-(((3-acetyl-5,8-dichloro-4-oxo-1,4-dihydroquinolin-2-yl)sulfinyl)methyl)furan-2-carboxylate] | > 2 µM | > 10 µM | 1.34 µM | > 10 µM | > 2 µM | > 2 µM | 1.36 µM | 1.36 µM | > 2 µM | 1.04 µM | 0.86 µM |  |  |  |  |  |  |  |  |  |
| CC(=O)c1c([S+]([O-])Cc2c(F)c(F)c(F)c(F)c2F)[nH]c2c(Br)ccc(Cl)c2c1=O (centres unmarked) [Compound 78, 3-acetyl-8-bromo-5-chloro-2-(((perfluorophenyl)methyl)sulfinyl)quinolin-4(1H)-one] |  |  |  |  |  |  |  |  |  | > 2 µM | 1.01 µM | > 2 µM | > 2 µM | > 10 µM | > 2 µM | > 10 µM | > 2 µM | > 2 µM | > 2 µM | 1.2 µM |
| Cc1cc(C[S+]([O-])c2[nH]c3c(Cl)ccc(Cl)c3c(=O)c2C(=O)C(C)C)no1 (centres unmarked) [Compound 86, 5,8-dichloro-3-isobutyryl-2-(((5-methylisoxazol-3-yl)methyl)sulfinyl)quinolin-4(1H)-one] | > 2 µM | > 10 µM | 0.5 µM | > 10 µM | 1.47 µM | 1.58 µM | 0.58 µM | 0.58 µM | 1.11 µM | 0.5 µM | 0.38 µM |  |  |  |  |  |  |  |  |  |
